Source: patent US20140249135A1, “PIM KINASE INHIBITORS AND METHODS OF THEIR USE” (NOVARTIS AG, priority 2007, published 2014)

What was measured:
Pim1 kinase = Pim1 kinase (Homo sapiens, UniProt P11309); test: Pim1 ATP depletion assay; format: biochemical; conditions: Pim1 ATP depletion assay; read-out: IC50 (μM) PIM1;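 note: Luciferase-luciferin luminescence readout of residual ATP after PIM1 transfers phosphate to a peptide substrate, 40 µM ATP added, reaction run to roughly half ATP consumption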
Chain of Pim1 kinase (P11309 whole entry): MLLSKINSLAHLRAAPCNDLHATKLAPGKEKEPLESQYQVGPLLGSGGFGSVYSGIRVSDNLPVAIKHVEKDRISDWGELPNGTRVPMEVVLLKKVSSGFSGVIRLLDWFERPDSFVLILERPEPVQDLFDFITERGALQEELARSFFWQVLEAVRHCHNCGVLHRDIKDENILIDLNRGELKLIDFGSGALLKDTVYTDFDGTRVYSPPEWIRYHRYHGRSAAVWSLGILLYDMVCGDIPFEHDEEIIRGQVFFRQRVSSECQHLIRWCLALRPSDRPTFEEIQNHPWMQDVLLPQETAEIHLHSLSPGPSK

KDR kinase = KDR kinase (Homo sapiens, UniProt P35968); test: KDR AlphaScreen assay; conditions: KDR IC50 (μM)
Chain of KDR kinase (P35968 20-1356): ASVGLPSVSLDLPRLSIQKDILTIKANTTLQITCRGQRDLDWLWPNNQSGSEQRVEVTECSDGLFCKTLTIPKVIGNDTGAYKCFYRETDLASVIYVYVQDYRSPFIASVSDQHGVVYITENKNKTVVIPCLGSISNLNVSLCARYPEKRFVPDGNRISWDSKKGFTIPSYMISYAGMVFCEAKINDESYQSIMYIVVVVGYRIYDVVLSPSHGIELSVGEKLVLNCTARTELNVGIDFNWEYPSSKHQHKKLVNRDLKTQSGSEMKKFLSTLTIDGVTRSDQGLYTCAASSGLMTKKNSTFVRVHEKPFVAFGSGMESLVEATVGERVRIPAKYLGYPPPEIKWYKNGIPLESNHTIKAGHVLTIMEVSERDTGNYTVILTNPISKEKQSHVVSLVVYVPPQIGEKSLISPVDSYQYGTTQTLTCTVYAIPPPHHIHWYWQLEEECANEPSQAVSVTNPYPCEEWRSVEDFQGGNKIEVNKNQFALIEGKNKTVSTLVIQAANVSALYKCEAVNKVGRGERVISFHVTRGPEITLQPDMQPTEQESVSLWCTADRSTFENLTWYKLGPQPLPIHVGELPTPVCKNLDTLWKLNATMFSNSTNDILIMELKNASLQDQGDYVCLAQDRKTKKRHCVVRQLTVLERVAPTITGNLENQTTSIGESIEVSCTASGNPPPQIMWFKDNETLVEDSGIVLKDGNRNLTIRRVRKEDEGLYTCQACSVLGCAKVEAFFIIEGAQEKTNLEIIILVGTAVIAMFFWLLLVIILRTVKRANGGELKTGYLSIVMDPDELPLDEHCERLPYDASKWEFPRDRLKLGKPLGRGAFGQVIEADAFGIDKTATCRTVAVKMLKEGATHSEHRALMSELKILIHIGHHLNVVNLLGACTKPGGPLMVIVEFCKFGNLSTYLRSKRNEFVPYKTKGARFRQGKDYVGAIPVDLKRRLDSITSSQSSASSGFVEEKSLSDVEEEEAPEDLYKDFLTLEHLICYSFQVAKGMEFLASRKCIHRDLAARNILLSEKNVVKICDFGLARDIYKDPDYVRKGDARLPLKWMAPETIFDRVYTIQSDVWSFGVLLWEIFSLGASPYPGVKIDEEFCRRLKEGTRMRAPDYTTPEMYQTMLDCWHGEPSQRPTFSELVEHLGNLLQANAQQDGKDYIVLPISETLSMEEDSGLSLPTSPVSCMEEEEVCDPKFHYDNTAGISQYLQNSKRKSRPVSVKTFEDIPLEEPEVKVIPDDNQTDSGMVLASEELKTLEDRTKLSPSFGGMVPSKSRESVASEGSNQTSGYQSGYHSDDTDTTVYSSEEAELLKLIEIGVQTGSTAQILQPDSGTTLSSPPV

Pim2 kinase = Pim2 kinase (Homo sapiens, UniProt Q9P1W9); test: Pim2 ATP depletion assay; format: biochemical; conditions: read-out: IC50 (μM) PIM2;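 note: Luciferase-based luminescent readout of ATP remaining after PIM2 phosphorylates a BAD peptide, final 5 nM enzyme, 4 µM ATP, 10 µM peptide, 2.5% DMSO, run to roughly half ATP consumption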
Chain of Pim2 kinase (Q9P1W9 whole entry): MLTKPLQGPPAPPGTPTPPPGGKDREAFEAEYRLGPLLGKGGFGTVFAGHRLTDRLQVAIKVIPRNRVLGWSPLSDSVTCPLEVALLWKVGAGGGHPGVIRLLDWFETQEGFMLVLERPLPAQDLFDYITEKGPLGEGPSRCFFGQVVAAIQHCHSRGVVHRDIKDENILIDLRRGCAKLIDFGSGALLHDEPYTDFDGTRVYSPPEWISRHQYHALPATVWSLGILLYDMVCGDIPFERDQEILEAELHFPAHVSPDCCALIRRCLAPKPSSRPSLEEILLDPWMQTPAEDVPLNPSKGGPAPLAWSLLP

[1] = biological target: T1, human full length PKCE enzyme (Homo sapiens, UniProt Q02156); test: In vitro PKCE assay; format: biochemical; conditions: 10 nM enzyme, 40 uM peptide substrate, 20 uM ATP, KinaseGlo Plus readout; read-out: PKCε IC50
T1 construct: human full length PKCE enzyme purchased from InVitrogen; purchased InVitrogen
T1 sequence (Q02156 1-737): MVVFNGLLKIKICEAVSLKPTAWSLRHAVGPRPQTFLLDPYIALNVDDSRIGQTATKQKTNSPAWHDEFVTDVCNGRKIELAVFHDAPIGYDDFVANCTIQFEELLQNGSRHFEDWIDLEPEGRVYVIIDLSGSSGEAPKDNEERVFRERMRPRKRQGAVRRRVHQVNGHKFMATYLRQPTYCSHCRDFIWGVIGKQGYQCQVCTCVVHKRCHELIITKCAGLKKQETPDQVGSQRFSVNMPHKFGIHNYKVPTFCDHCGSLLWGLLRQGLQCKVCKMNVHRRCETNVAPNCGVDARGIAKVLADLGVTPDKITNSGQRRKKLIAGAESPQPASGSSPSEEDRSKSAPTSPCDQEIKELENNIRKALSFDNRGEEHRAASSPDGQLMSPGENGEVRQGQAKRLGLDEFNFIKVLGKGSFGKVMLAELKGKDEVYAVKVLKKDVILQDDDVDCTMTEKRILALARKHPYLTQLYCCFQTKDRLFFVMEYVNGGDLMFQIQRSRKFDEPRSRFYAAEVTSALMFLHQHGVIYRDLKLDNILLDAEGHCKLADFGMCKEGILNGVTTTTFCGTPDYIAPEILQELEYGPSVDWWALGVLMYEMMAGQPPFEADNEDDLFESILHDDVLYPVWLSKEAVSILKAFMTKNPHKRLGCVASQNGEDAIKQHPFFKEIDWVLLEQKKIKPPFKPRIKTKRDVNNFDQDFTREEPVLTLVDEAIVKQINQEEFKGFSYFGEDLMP

Pim3 kinase = Pim3 kinase (Homo sapiens, UniProt Q86V86); test: Pim3 ATP depletion assay; format: biochemical; conditions: read-out: IC50 (μM) PIM3

SMILES | IC50 (Pim1 kinase) | IC50 (KDR kinase) | IC50 (Pim2 kinase) | IC50 [1] | IC50 (Pim3 kinase)
COc1ccc(-c2cnc(N)c(C(=O)Nc3ccccc3N3CCC(N)CC3)n2)cc1 [Example 381, 3-amino-6-(4-methoxy-phenyl)-pyrazine-2-carboxylic acid [2-(4-amino-piperidin-1-yl)-phenyl]-amide] | < 1 µM | 1 to 10 µM | < 1 µM | < 1000 nM | < 1 µM
Nc1ncc(-c2ccoc2)nc1C(=O)Nc1ccccc1N1CCNCC1 [Example 384, 3-amino-6-furan-3-yl-pyrazine-2-carboxylic acid (2-piperazin-1-yl-phenyl)-amide] | < 1 µM | 1 to 10 µM | 1 to 10 µM | < 1000 nM | 1 to 10 µM
COc1ccc(-c2cnc(N)c(C(=O)Nc3ccccc3N3CCNCC3)n2)cc1 [Example 386, 3-amino-6-(4-methoxy-phenyl)-pyrazine-2-carboxylic acid (2-piperazin-1-yl-phenyl)-amide] | < 1 µM | 1 to 10 µM | 1 to 10 µM | < 1000 nM | < 1 µM
Nc1ncc(-c2ccccc2Oc2ccccc2)nc1C(=O)Nc1ccccc1N1CCNCC1 [Example 387, 3-amino-6-(2-phenoxy-phenyl)-pyrazine-2-carboxylic acid (2-piperazin-1-yl-phenyl)-amide] | 1 to 10 µM | 10 to 25 µM | > 25 µM | 1000 to 10000 nM | 1 to 10 µM
COc1ncccc1-c1cnc(N)c(C(=O)Nc2ccccc2N2CCNCC2)n1 [Example 390, 3-amino-6-(2-methoxy-pyridin-3-yl)-pyrazine-2-carboxylic acid (2-piperazin-1-yl-phenyl)-amide] | < 1 µM | 1 to 10 µM | > 25 µM | < 1000 nM | 1 to 10 µM
Nc1ncc(-c2ccccc2)nc1C(=O)Nc1cc(C(=O)c2ccccc2)ccc1N1CCCC(N)C1 (stereo not shown) [Example 435, 3-amino-6-phenyl-pyrazine-2-carboxylic acid [2-(3-amino-piperidin-1-yl)-5-benzoyl-phenyl]-amide] | 1 to 10 µM | < 1 µM | 1 to 10 µM | 10000 to 25000 nM | 1 to 10 µM
Nc1ncc(-c2ccccc2)nc1C(=O)Nc1cc(C(=O)c2ccccc2)ccc1N1CCC(N)CC1 [Example 436, 3-amino-6-phenyl-pyrazine-2-carboxylic acid [2-(4-amino-piperidin-1-yl)-5-benzoyl-phenyl]-amide] | 1 to 10 µM | 1 to 10 µM | > 25 µM | 1000 to 10000 nM | 1 to 10 µM
COc1ccc(N2CCC(N)CC2)c(NC(=O)c2nc(-c3ccccc3)cnc2N)c1 [Example 437, 3-amino-6-phenyl-pyrazine-2-carboxylic acid [2-(4-amino-piperidin-1-yl)-5-methoxy-phenyl]-amide] | < 1 µM | 1 to 10 µM | < 1 µM | < 1000 nM | < 1 µM
Nc1ncc(-c2ccccc2F)nc1C(=O)Nc1cc(C(=O)c2ccccc2)ccc1N1CCC(N)CC1 [Example 439, 3-amino-6-(2-fluoro-phenyl)-pyrazine-2-carboxylic acid [2-(4-amino-piperidin-1-yl)-5-benzoyl-phenyl]-amide] | 1 to 10 µM | 1 to 10 µM | > 25 µM | 1000 to 10000 nM | 1 to 10 µM
Cc1cnc(N)c(C(=O)Nc2cc(C(=O)c3ccccc3)ccc2N2CCNCC2)n1 [Example 440, 3-amino-6-methyl-pyrazine-2-carboxylic acid (5-benzoyl-2-piperazin-1-yl-phenyl)-amide] | > 25 µM | 1 to 10 µM | > 25 µM | > 25000 nM | 10 to 25 µM
COc1ccc(-c2cnc(N)c(C(=O)Nc3cc(C(=O)c4ccccc4)ccc3N3CCNCC3)n2)cc1 [Example 441, 3-amino-6-(4-methoxy-phenyl)-pyrazine-2-carboxylic acid (5-benzoyl-2-piperazin-1-yl-phenyl)-amide] | 1 to 10 µM | < 1 µM | > 25 µM | 10000 to 25000 nM | 1 to 10 µM

The next lines start with the values.

IC50 (Pim1 kinase) | IC50 (KDR kinase) | IC50 (Pim2 kinase) | IC50 [1] | IC50 (Pim3 kinase) | SMILES
< 1 µM | < 1 µM | 1 to 10 µM | < 1000 nM | < 1 µM | COc1cncc(-c2cnc(N)c(C(=O)Nc3cnccc3N3CCC(N)CC3)n2)n1 [Example 366, 5-amino-6′-methoxy-[2,2′]bi-pyrazinyl-6-carboxylic acid (4-amino-3,4,5,6-tetrahydro-2H-[1,4′]bipyridinyl-3′-yl)-amide]
< 1 µM | < 1 µM | < 1 µM | < 1000 nM | < 1 µM | NC(=O)c1cccc(-c2cnc(N)c(C(=O)Nc3cnccc3N3CCCC(N)C3)n2)c1 (stereo not shown) [Example 369, 3-amino-6-(3-carbamoyl-phenyl)-pyrazine-2-carboxylic acid (3-amino-3,4,5,6-tetra-hydro-2H-[1,4′]bipyridinyl-3′-yl)-amide]
< 1 µM | 1 to 10 µM | < 1 µM | < 1000 nM | < 1 µM | Nc1ncc(-c2ccccc2F)nc1C(=O)Nc1ccccc1N1CCC(N)CC1 [Example 377, 3-amino-6-(2-fluoro-phenyl)-pyrazine-2-carboxylic acid [2-(4-amino-piperidin-1-yl)-phenyl]-amide]
< 1 µM | 1 to 10 µM | 1 to 10 µM | < 1000 nM | < 1 µM | Nc1ncc(-c2ccoc2)nc1C(=O)Nc1ccccc1N1CCC(N)CC1 [Example 379, 3-amino-6-furan-3-yl-pyrazine-2-carboxylic acid [2-(4-amino-piperidin-1-yl)-phenyl]-amide]
< 1 µM | < 1 µM | 1 to 10 µM | < 1000 nM | < 1 µM | NC(=O)c1cccc(-c2cnc(N)c(C(=O)Nc3ccccc3N3CCC(N)CC3)n2)c1 [Example 380, 3-amino-6-(3-carbamoyl-phenyl)-pyrazine-2-carboxylic acid [2-(4-amino-piperidin-1-yl)-phenyl]-amide]
< 1 µM | 1 to 10 µM | 1 to 10 µM | < 1000 nM | < 1 µM | Nc1ncc(-c2ccccc2F)nc1C(=O)Nc1ccccc1N1CCNCC1 [Example 383, 3-amino-6-(2-fluoro-phenyl)-pyrazine-2-carboxylic acid (2-piperazin-1-yl-phenyl)-amide]
< 1 µM | 1 to 10 µM | 1 to 10 µM | < 1000 nM | < 1 µM | NC(=O)c1cccc(-c2cnc(N)c(C(=O)Nc3ccccc3N3CCNCC3)n2)c1 [Example 385, 3-amino-6-(3-carbamoyl-phenyl)-pyrazine-2-carboxylic acid (2-piperazin-1-yl-phenyl)-amide]
< 1 µM | < 1 µM | 1 to 10 µM | < 1000 nM | < 1 µM | Cc1cccc(-c2cnc(N)c(C(=O)Nc3ccccc3N3CCNCC3)n2)c1 [Example 388, 3-amino-6-m-tolyl-pyrazine-2-carboxylic acid (2-piper-azin-1-yl-phenyl)-amide]
1 to 10 µM | > 25 µM | > 25 µM | 1000 to 10000 nM | 1 to 10 µM | COc1ncc(-c2cnc(N)c(C(=O)Nc3ccccc3N3CCNCC3)n2)cn1 [Example 391, 3-amino-6-(2-methoxy-pyrimidin-5-yl)-pyrazine-2-carboxylic acid (2-piperazin-1-yl-phenyl)-amide]
< 1 µM | > 25 µM | < 1 µM | 1000 to 10000 nM | < 1 µM | Cc1ccc(-c2ccc(N)c(C(=O)Nc3cnccc3N3CCC[C@H](N)C3)n2)c(F)c1 [Example 406, (S)-3-amino-N-(4-(3-aminopiperidin-1-yl)pyridin-3-yl)-6-(2-fluoro-4-methylphenyl)picolinamide]
< 1 µM | > 25 µM | < 1 µM | 10000 to 25000 nM | < 1 µM | Nc1ncc(-c2ccc(N)c(C(=O)Nc3cnccc3N3CCC[C@H](N)C3)n2)cn1 [Example 411, 3-amino-6-(2-amino-pyrimidin-5-yl)-pyridine-2-carboxylic acid ((S)-3-amino-3,4,5,6-tetrahydro-2H-[1,4′]bipyridinyl-3′-yl)-amide]
1 to 10 µM | 1 to 10 µM | > 25 µM | > 25000 nM | 1 to 10 µM | Nc1ncc(-c2ccccc2F)nc1C(=O)Nc1cc(C(=O)c2ccccc2)ccc1N1CCNCC1 [Example 438, 3-amino-6-(2-fluoro-phenyl)-pyrazine-2-carboxylic acid (5-benzoyl-2-piperazin-1-yl-phenyl)-amide]
